# Assay results: publication PMC3576842 (Cancer discovery, 2012)
# “Also recorded” adds a separate entry of the source.
# Legend:
# [1] = human, in vivo; cited from earlier work
# [2] = tested on: NCI-H1975 cells (EGFR L858R/T790M); experiment: Cell viability assay; format: cell-based, human; conditions: read-out: IC50 cell viability; 72 hr; L858R/T790M mutant line
# [3] = tested on: PC-9 cells; experiment: High-throughput tumor cell line screening / cell viability assay; format: cell-based, human; conditions: for effect on growth: even at high concentrations
# [4] = tested on: HCC827 cells (EGFR del E746_A750); experiment: EGFR signaling and apoptosis immunoblotting in HCC827 cells; format: cell-based, human
# [5] = tested on: EGFR delE746_A750 mutant lines (PC-9, HCC827, HCC4006); experiment: Cell viability assay; format: cell-based, human; conditions: read-out: IC50 cell viability; 72 hr; 3 NSCLC lines with EGFR delE746_A750
# [6] = tested on: PC-9 cells (EGFR del E746_A750); experiment: EGFR signaling and apoptosis immunoblotting in PC-9 cells; format: cell-based, human
# [7] = tested on: HCC827 cells; experiment: High-throughput tumor cell line screening / cell viability assay; format: cell-based, human
# [8] = molecular target: EGFR del E746_A750/T790M in erlotinib-resistant PC-9 cells (Homo sapiens, UniProt P00533, DEL746-750/T790M); experiment: Drug wash-out assay; format: cell-based
# [9] = molecular target: recombinant EGFR T790M (Homo sapiens, UniProt P00533, T790M); experiment: EGFR autophosphorylation assay; format: biochemical; conditions: for inhibition of EGFR T790M autophosphorylation: ATP, 15 min; for concentrations as low as which inhibit EGFR T790M autophosphorylation: EGFR T790M mutants
# [10] = molecular target: EGFR L858R/T790M in NR6 cells (Homo sapiens, UniProt P00533, L858R/T790M); experiment: Ligand-induced; format: cell-based; conditions: 16 hr, TGF-α 15 min
# [11] = PKC412 225 mg/d for 28 days, solid tumor tissues; cited from earlier work
# [12] = in vivo; conditions: athymic nude, mouse, plasma, oral, 100 mg/kg
# [13] = tested on: PC-9/ER xenografts (EGFR del E746_A750/T790M); experiment: PC-9/ER xenograft study; conditions: for tumor growth: daily oral gavage for 21 days, PKC412 100 mg/kg, WZ4002 25 mg/kg
# [14] = molecular target: wild-type EGFR in NR6 cells (Homo sapiens, UniProt P00533); experiment: Ligand-induced; format: cell-based; conditions: for inhibition of ligand-induced EGFR phosphorylation: NR6 wild-type EGFR, TGF-α
# [15] = tested on: NCI-H1975 tumor xenografts (EGFR L858R/T790M); experiment: NCI-H1975 xenograft study; format: in vivo, Balb/c nude mice
# [16] = tested on: lung adenocarcinomas driven by EGFR L858R/T790M; experiment: Genetically engineered NSCLC model; format: in vivo, mice
# [17] = molecular target: recombinant EGFR L858R/T790M (Homo sapiens, UniProt P00533, L858R/T790M); experiment: EGFR autophosphorylation assay; format: biochemical; conditions: ATP, 15 min
# [18] = molecular target: EGFR del E746_A750/T790M in NR6 cells (Homo sapiens, UniProt P00533, DEL746-750/T790M); experiment: Ligand-induced; format: cell-based; conditions: 16 hr, TGF-α 15 min
# [19] = molecular target: recombinant EGFR wild-type (Homo sapiens, UniProt P00533); experiment: EGFR autophosphorylation assay; format: biochemical
# [20] = tested on: PC-9/ER cells; experiment: Anti-proliferative response of erlotinib-resistant PC-9 clone; conditions: 10 μM erlotinib
# [21] = 1 μM, 72 hr, strong sensitivity defined as greater than 70% growth suppression
smiles,measurement,setting,value
CO[C@@H]1[C@H](N(C)C(=O)c2ccccc2)C[C@H]2O[C@]1(C)n1c3ccccc3c3c4c(c5c6ccccc6n2c5c31)C(=O)N[C@H]4O [CGP52421],plasma concentration of metabolite,[1],20000 to 25000 nM
Cn1c2ccccc2c2c3c(c4c5ccccc5n(CCC#N)c4c21)CNC3=O [Gö6976],IC50,[2],~800 nM
same,growth inhibition in cell line screen,[3]; [21],strongly growth inhibited
same,apoptosis (PARP cleavage),[4]; HCC827,promotes apoptosis
same,suppression of EGFR signaling,"[4]; HCC827, 1 μM",suppressed EGFR signaling as efficiently as erlotinib
same,IC50,[5],100 to 200 nM
same,apoptosis (PARP cleavage),[6]; PC-9,promotes apoptosis
same,suppression of EGFR signaling,"[6]; PC-9, 1 μM",suppressed EGFR signaling as efficiently as erlotinib
same,growth inhibition in cell line screen,[7]; [21],strongly growth inhibited
CO[C@@H]1[C@H](N(C)C(=O)c2ccccc2)C[C@H]2O[C@]1(C)n1c3ccccc3c3c4c(c5c6ccccc6n2c5c31)C(=O)NC4 [PKC412],nature of inhibition (recovery of pEGFR after wash-out),[8],reversible
same,inhibition of EGFR T790M autophosphorylation,[9],potently inhibit
same,concentrations as low as which inhibit EGFR T790M autophosphorylation,[9],3 to 30 nM
same,inhibition of ligand-induced EGFR phosphorylation,[10],similarly potent ability to inhibit
same,tissue concentration (median),[11],593 nM
same,Cmax,[12],2910 nM
same,concentration at 24 h,[12],659 nM
same,EGFR signaling in tumors after the last dosing,"[13]; Day 21, 4 hours after the last dosing",effective suppression of EGFR signaling
same,body weight loss,"[13]; daily oral 100 mg/kg, 21 days",no significant body weight loss
same,tumor growth,[13],tumors began to regress; also recorded: significant tumor regression
same,inhibition of ligand-induced EGFR phosphorylation,[14],not significantly inhibited
same,less activity against wild-type EGFR in drug-treated cells than irreversible EGFR inhibitors,[14]; PKC412 versus irreversible EGFR inhibitors,500 fold
same,EGFR signaling in tumors after the last dosing,[15]; 4 hours after the last dosing,effective suppression of EGFR signaling
same,suppression of phospho-EGFR and phospho-AKT in tumors,"[15]; daily for 3 days, PKC412 100 or 200 mg/kg, gefitinib 100 mg/kg",Significant suppression
same,body weight loss,[15]; daily oral 100 mg/kg,no significant body weight loss
same,tumor growth suppression compared to control-treated animals,"[15]; day 12, daily oral PKC412 100 mg/kg",50%
same,weight loss,[16]; 4 weeks of PKC412 treatment,No significant weight loss
same,tumor growth,[16]; 4 weeks of treatment,growth inhibited for the first two weeks of treatment
same,phosphorylation of EGFR L858R/T790M in tumors,[16]; treated for 5 days,significant decrease in phosphorylation
same,inhibition of EGFR L858R/T790M autophosphorylation,[17],potently inhibit
C=CC(=O)Nc1cccc(Oc2nc(Nc3ccc(N4CCN(C)CC4)cc3OC)ncc2Cl)c1 [WZ4002],inhibition of ligand-induced EGFR phosphorylation,[18],most potent inhibitor
same,inhibition of EGFR T790M autophosphorylation,[9],potent suppression
same,concentrations as low as which inhibit EGFR T790M autophosphorylation,[9],10 nM
same,inhibition of ligand-induced EGFR phosphorylation,[10],similarly potent ability to inhibit
same,tumor growth,[13],efficiently inhibited
same,inhibition of ligand-induced EGFR phosphorylation,[14],modestly affected
same,inhibition of wild-type EGFR autophosphorylation,"[19]; ATP, 15 min",ineffective
same,concentrations with detectable inhibition of wild-type EGFR,[19]; autophosphorylation,above 1 micromolar
same,inhibition of EGFR L858R/T790M autophosphorylation,[17],potent suppression
CN(C)CCCn1cc(C2=C(c3c[nH]c4ccccc34)C(=O)NC2=O)c2ccccc21 [bis-indolylmaleimide I],effect on growth,[3],failed to detectably affect growth
same,effect on growth,[7]; even at high concentrations,failed to detectably affect growth
C#Cc1cccc(Nc2ncnc3cc(OCCOC)c(OCCOC)cc23)c1 [erlotinib],anti-proliferative response,[20],no anti-proliferative response
CN1CCN(c2nc(C3=C(c4c[nH]c5ccccc45)C(=O)NC3=O)c3ccccc3n2)CC1 [sotrastaurin],effect on growth,[3],failed to detectably affect growth
